ChEMBL document CHEMBL3351622, “Synthesis and evaluation of 9-deoxy analogues of (-)-thysanone, an inhibitor of HRV 3C protease” (Eur J Med Chem, 2014)

Key:
[1] = Inhibition of human rhinovirus 3C protease; parameters: species or system Human rhinovirus sp.
[2] = Inhibition of human rhinovirus 3C protease incubated for 1 hr by solid phase fluorescent assay; parameters: species or system Human rhinovirus sp.

| IC50 [1] | IC50 [2] | Compound |
| --- | --- | --- |
| 47 µM | 51.8 µM | C[C@H]1CC2=C(C(=O)c3c(O)cc(O)cc3C2=O)[C@H](O)O1 |
|  | 20.3 µM | C[C@H]1CC2=C(C(=O)c3ccc(O)cc3C2=O)[C@H](O)O1 (racemic) |
|  | 30.9 µM | C[C@H]1CC2=C(CO1)C(=O)c1ccc(O)cc1C2=O (racemic) |
|  | 35.7 µM | CC(C)Oc1ccc2c(c1)C(=O)C1=C(CO[C@@H](C)C1)C2=O (racemic) |
